The structures appear in SMILES notation.

The species entered for the first test is Rattus norvegicus. Briefly: In vitro Growth hormone releasing activity in rat pituitary cells; weakly active at 1 uM. It counts as functional. The following applies: Pituitary gland cell, read-out: ED50 (the source's name).
On to `CC(C)(N)CC(=O)N[C@@H]1CCc2ccccc2N(Cc2ccc(-c3ccccc3)c(-c3nn[nH]n3)c2)C1=O`, for which the EC50 was > 1000 nM.

The species entered for another test is Rattus norvegicus. Nature of the test: In vitro Growth hormone releasing activity in rat pituitary cells. Format: functional, Pituitary gland cell. The following applies: Rattus norvegicus, Pituitary gland cell; read-out: ED50 (the source's name).
For the compound `CC(C)(N)CC(=O)N[C@@H]1CCc2ccccc2N(Cc2ccccc2)C1=O`, the EC50 came out at 7000 nM.

`CC(C)(N)CC(=O)N[C@@H]1CCc2ccccc2N(CC2CCC(c3ccccc3-c3nn[nH]n3)CC2)C1=O` (stereo partly specified): the EC50 was determined as 860 nM. `CC(C)(N)CC(=O)N[C@@H]1CCc2ccccc2N(Cc2ccc(-c3ccccc3)cc2)C1=O`: the EC50 was determined as 3000 nM.

Take `CC(C)(N)CC(=O)N[C@@H]1CCc2ccccc2N(Cc2ccc(-c3ccccc3-c3nn[nH]n3)cc2)C1=O`: the EC50 is 60 nM.

`C[C@@H](O)CNC(C)(C)CC(=O)N[C@@H]1CCc2ccccc2N(CC2CCC(c3ccccc3-c3nn[nH]n3)CC2)C1=O` (stereo partly specified): the EC50 is 75 nM. On to `C[C@@H](O)CNC(C)(C)CC(=O)N[C@@H]1CCc2ccccc2N(Cc2ccc(-c3ccccc3-c3nn[nH]n3)cc2)C1=O` [L-692585], for which the EC50 was found to be 3 nM.

Still in this test, the particulars now being: read-out: ED50 (the source's name).
For the compound `CC(C)(N)CC(=O)N[C@@H]1CCc2ccccc2N(CC2=CCC(c3ccccc3-c3nn[nH]n3)CC2)C1=O` (stereo in doubt; 34), the EC50 stood at 1200 nM. On the same count and under the same terms, for `CC(C)(N)CC(=O)N[C@@H]1CCc2ccccc2N(CC2=CCC(c3ccccc3-c3nn[nH]n3)CC2)C1=O` (stereo in doubt; 35) the value was 120 nM; for `C[C@@H](O)CNC(C)(C)CC(=O)N[C@@H]1CCc2ccccc2N(CC2=CCC(c3ccccc3-c3nn[nH]n3)CC2)C1=O` (stereo in doubt; 36), 25 nM; for `C[C@@H](O)CNC(C)(C)CC(=O)N[C@@H]1CCc2ccccc2N(CC2=CCC(c3ccccc3-c3nn[nH]n3)CC2)C1=O` (stereo in doubt; 37), 7 nM.

The record behind these values is ChEMBL document CHEMBL1128833, “Aliphatic replacements of the biphenyl moiety of the nonpeptidyl growth hormone secretagogues L-692,429 and L-692,585” (1995).
